The test system of series [1] is Huh-7. Kind of series: Induction of apoptosis in human Huh-7 cells assessed as viable cells at 80 nM measured after 24 hrs by Annexin-V-FITC/PI analysis (reference value: 97.46%). In kind it is functional. To be noted: read-out: Activity.
The subject of series [2] is Huh-7. The series can be described thus: Inhibition of cell migration in human Huh-7 cells at 10 nM measured for 24 hrs by scratch wound healing assay. In kind it is functional, cell-based.
The nature of series [3]: Tmax in Sprague-Dawley rat at 10 mg/kg, ip measured upto 24 hrs by LC-MS/MS analysis. To be noted: in vivo. In kind it is ADME, organism-based.
A short description of series [4]: Cmax in Sprague-Dawley rat at 10 mg/kg, ip measured upto 24 hrs by LC-MS/MS analysis. The format is ADME, organism-based. The following applies: in vivo.
Series [5] is described as follows: Drug resistance index, ratio of IC50 for antiproliferative activity against human SMMC-7721 cells to antiproliferative activity against human Doxorubicin-resistant SMMC-7721 cells. The format is functional.
The subject of series [6] is SK-HEP1. The series can be described thus: Induction of apoptosis in human SK-HEP1 cells assessed as necrotic cells at 40 nM measured after 24 hrs by Annexin-V-FITC/PI analysis (reference value: 0.70%). The format is functional.
Series [7] concerns Huh-7. Kind of series: Induction of cell cycle arrest in human Huh-7 cells assessed as accumulation of cells at G2 phase 40 nM measured after 24 hrs by flow cytometric assay (reference value: 13.66%). The format is functional. A general note: Flow cytometry measures light scatter and fluorescence of single cells or particles in a stream.

The source made the active and inactive calls. The rule behind the calls is not given here.

The Tmax is the time from dosing to the highest level. In general, Cmax refers to the highest concentration seen after dosing.

Consider `C[N+](C)(C)CCC(=O)Oc1ccc2[nH]c3c(c2c1)CCN1C(=O)c2cc(F)cc(F)c2N(c2cccc(F)c2)C31.[I-]` (configuration not stated), for which the viability at 0.08 µM in series [1] is 79.7%. Besides, the inhibition entry in series [2] is “Active”. Besides, the Tmax in series [3] came out at 1.67 h. The Cmax in series [4] is 240 ng/mL. In addition, the Ratio in series [5] is listed as 1.2. The Activity is reported as 0.49% in series [6] and 11.72% in series [7].

(Values after ChEMBL document CHEMBL6071160, “Identification of a novel 10-hydroxyevodiamine prodrug as a potent topoisomerase inhibitor with improved aqueous solubility for treatment of hepatocellular carcinoma” (Eur J Med Chem, 2024).)
